From article PMC5902437, “Structural studies on radiopharmaceutical DOTA-minigastrin analogue (CP04) complexes and their interaction with CCK2 receptor” (EJNMMI Research, 2018)

How the values were obtained:
human CCK-2R = target: T1, human CCK-2R (Homo sapiens, UniProt P32239); experiment: Competition binding assay with [^90Y]Y-CP04 as competitive radioligand in A431-CCK2R(+) cells; conditions: 0.5 mln per well, radioligand [^90Y]Y-CP04 0.24 pmol per well, 1 h at 37 °C, competitor 10^-6–10^-13 M, cell-associated radioactivity by gamma counter, mean ± SD, n = 3 experiments in triplicate, read-out: apparent 50% inhibitory concentration (IC50) for hCCK-2R
T1 construct: expressed in transfected cells; host or cells: A431 human epidermoid carcinoma cells, stably transfected (gift of Prof. Luigi Aloj)
T1 sequence (P32239 1-447): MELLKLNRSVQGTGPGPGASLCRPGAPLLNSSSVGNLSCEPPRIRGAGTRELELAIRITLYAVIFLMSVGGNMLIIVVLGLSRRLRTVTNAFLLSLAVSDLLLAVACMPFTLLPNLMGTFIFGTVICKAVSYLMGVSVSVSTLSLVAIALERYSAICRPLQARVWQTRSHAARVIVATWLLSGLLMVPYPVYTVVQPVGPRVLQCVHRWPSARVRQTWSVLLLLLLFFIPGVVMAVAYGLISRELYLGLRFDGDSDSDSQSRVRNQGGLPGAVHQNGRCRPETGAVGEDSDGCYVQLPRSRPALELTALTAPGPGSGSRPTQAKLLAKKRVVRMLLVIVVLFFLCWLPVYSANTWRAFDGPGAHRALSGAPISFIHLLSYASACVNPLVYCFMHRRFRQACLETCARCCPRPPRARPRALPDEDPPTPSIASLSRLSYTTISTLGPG
Method: The A431 human epidermoid carcinoma cell line stably transfected with the human CCK2R (A431-CCK2R(+)) and mock transfected with an empty vector alone (A431-CCK2R(−)) were kindly provided by Prof. Luigi Aloj.
The cells were cultured in Dulbecco’s modified Eagle’s medium (DMEM) supplemented with 10% of heat-inactivated fetal bovine serum and antibiotics (penicillin 100 U/mL and streptomycin 100 μg/mL) and cultivated at 37 °C in 5% CO2.
The binding affinity (the apparent 50% inhibitory concentration (IC50)) of [^natGa]Ga-CP04 and [^natLu]Lu-CP04 complexes for CCK2 receptor was determined in A431-CCK2R(+) cell line using [^90Y]Y-CP04 as a competitive radioligand according to the method used by Roosenburg et al.. [^90Y]Y-CP04 was obtained with a molar activity of 2.05 GBq/μmol calculated at the time of experiment and 98% radiochemical purity as determined by radio HPLC method. Human epidermoid carcinoma (A431-CCK2(+)) cells were subcultured overnight in 12-well plates in concentration of 0.5 mln per well. Before the experiments, the cells were washed with DMEM medium and then [^90Y]Y-labeled CP04 (2.05 GBq/μmol) was added to the cells in amount of 0.24 pmol per well (ca. 80,000 cpm) and incubated for 1 h at 37 °C with increasing concentrations (10^−6–10^−13 M) of the Ga and Lu complexes of CP04 peptide. […]

CCK-2R = conditions: literature SAR of CCK/gastrin derivatives; cited from earlier work
Text: Table 3 SAR data from CCK/gastrin derivatives and their correspondence to our model | column: SAR data from CCK/gastrin derivatives

**Q.** With `CSCC[C@H](NC(=O)[C@H](Cc1c[nH]c2ccccc12)NC(=O)CNC(=O)[C@H](Cc1ccc(O)cc1)NC(=O)[C@H](C)NC(=O)[C@@H](CCC(=O)O)NC(=O)[C@@H](CCC(=O)O)NC(=O)[C@@H](CCC(=O)O)NC(=O)[C@@H](CCC(=O)O)NC(=O)[C@@H](CCC(=O)O)NC(=O)[C@@H](CCC(=O)O)NC(=O)CN1CCN(CC(=O)O)CCN(CC(=O)O)CCN(CC(=O)O)CC1)C(=O)N[C@@H](CC(=O)O)C(=O)N[C@@H](Cc1ccccc1)C(N)=O` [[^natGa]Ga-CP04, metal not drawn] as the compound, how does the IC50 (human CCK-2R) read?
**A.** 1.15 ± 0.39 nM

**Q.** For `CSCC[C@H](NC(=O)[C@H](Cc1c[nH]c2ccccc12)NC(=O)CNC(=O)[C@H](Cc1ccc(O)cc1)NC(=O)[C@H](C)NC(=O)[C@@H](CCC(=O)O)NC(=O)[C@@H](CCC(=O)O)NC(=O)[C@@H](CCC(=O)O)NC(=O)[C@@H](CCC(=O)O)NC(=O)[C@@H](CCC(=O)O)NC(=O)[C@@H](CCC(=O)O)NC(=O)CN1CCN(CC(=O)O)CCN(CC(=O)O)CCN(CC(=O)O)CC1)C(=O)N[C@@H](CC(=O)O)C(=O)N[C@@H](Cc1ccccc1)C(N)=O` [[^natLu]Lu-CP04, metal not drawn], which IC50 (human CCK-2R) is on record?
**A.** 1.02 ± 0.28 nM

**Q.** For “H-Trp-Met-Asp-Phe-NH2 [CCK-4, C-terminal tetrapeptide of CCK]”, which “binding to the receptor (SAR data in words)” value (CCK-2R) is on record?
**A.** 1. C-terminal sequence in cholecystokinins and gastrins is a condition necessary and sufficient for high affinity towards the receptor 2. Even a fragment as small as a tetrapeptide H-Trp-Met-Asp-Phe-NH2 (CCK-4) exhibits relatively good binding
